Experimental data from publication PMC7468596, “Potent In Vitro α-Glucosidase and β-Secretase Inhibition of Amyrin-Type Triterpenoid Isolated from Datura metel Linnaeus (Angel's Trumpet) Fruits” (BioMed Research International, 2020).

How the values were obtained:
[1] = target: T1, α-glucosidase (rat intestinal); assay: p-nitrophenyl-α-D-glucopyranoside hydrolysis, […] nm, crude intestinal enzyme; type: biochemical
T1 construct: supernatant of rat intestinal acetone powder

β-secretase (BACE1) = β-secretase (BACE1) (Homo sapiens, UniProt P56817); assay: BACE1 FRET enzyme assay, pH […]; type: biochemical
Sequence of β-secretase (BACE1) (P56817 46-457): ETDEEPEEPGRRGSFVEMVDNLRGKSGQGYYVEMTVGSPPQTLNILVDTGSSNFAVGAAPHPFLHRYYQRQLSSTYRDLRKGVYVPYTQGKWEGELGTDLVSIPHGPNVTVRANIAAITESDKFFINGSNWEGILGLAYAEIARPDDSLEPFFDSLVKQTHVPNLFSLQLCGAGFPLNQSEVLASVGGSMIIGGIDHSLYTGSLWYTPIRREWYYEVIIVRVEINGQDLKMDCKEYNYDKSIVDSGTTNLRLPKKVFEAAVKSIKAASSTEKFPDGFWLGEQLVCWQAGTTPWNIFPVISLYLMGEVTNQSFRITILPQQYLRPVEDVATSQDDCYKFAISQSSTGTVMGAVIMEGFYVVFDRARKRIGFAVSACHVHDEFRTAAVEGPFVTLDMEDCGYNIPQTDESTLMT

CC1(C)CC[C@]2(C)CC[C@]3(C)C(=CC[C@@H]4[C@@]5(C)CCC(=O)C(C)(C)[C@@H]5[C@H](O)C[C@]43C)[C@@H]2C1 [compound 1, daturaolone]
IC50 [1]: 830.4 ± 2.01 µM | IC50 (β-secretase (BACE1)): 260.7 ± 1.87 µM
